In ChEMBL document CHEMBL5291721, “A preclinical secondary pharmacology resource illuminates target-adverse drug reaction associations of marketed drugs” (Nat Commun, 2023):

How the values were obtained:
[1] = biological target: Growth hormone secretagogue receptor type 1 (Homo sapiens, UniProt Q92847)
Histamine H1 receptor = Histamine H1 receptor (Homo sapiens, UniProt P35367)
[2] = biological target: T1, 5-hydroxytryptamine receptor 1A (Homo sapiens, UniProt P08908); format: functional, cell-based
T1 sequence (P08908 whole entry): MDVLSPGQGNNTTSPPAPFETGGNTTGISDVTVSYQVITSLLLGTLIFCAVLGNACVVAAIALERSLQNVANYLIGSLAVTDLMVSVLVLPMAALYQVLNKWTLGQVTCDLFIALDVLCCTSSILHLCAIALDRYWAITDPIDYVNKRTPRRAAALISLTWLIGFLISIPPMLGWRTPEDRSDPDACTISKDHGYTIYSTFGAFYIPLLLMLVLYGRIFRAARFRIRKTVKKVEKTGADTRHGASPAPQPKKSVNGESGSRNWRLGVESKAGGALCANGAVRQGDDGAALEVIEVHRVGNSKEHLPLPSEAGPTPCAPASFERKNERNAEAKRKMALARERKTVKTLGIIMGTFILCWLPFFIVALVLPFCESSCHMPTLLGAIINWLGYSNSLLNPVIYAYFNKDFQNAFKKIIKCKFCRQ

[3] = biological target: T2, Amine oxidase [flavin-containing] A (Homo sapiens, UniProt P21397); format: functional
T2 sequence (P21397 whole entry): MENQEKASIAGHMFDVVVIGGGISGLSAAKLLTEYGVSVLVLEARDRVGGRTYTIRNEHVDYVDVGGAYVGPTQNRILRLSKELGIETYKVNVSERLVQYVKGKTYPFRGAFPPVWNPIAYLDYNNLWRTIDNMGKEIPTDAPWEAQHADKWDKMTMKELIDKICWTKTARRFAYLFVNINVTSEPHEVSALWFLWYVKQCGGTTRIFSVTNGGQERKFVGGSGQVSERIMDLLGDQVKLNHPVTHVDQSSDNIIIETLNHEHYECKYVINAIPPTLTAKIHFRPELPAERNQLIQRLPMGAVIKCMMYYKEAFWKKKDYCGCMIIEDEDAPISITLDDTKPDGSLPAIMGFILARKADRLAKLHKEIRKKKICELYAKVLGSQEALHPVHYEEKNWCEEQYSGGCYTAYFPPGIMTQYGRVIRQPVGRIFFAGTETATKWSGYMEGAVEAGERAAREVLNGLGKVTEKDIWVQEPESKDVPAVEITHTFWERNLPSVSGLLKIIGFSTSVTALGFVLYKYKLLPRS

[4] = biological target: 5-hydroxytryptamine receptor 2A (Homo sapiens, UniProt P28223); format: functional, cell-based
Melanocortin receptor 3 = Melanocortin receptor 3 (Homo sapiens, UniProt P41968)
Cannabinoid receptor 1 [5] = biological target: T3, Cannabinoid receptor 1 (Homo sapiens, UniProt P21554); format: functional, cell-based
Endothelin-1 receptor = biological target: T4, Endothelin-1 receptor (Homo sapiens, UniProt P25101)
T4 sequence (P25101 whole entry): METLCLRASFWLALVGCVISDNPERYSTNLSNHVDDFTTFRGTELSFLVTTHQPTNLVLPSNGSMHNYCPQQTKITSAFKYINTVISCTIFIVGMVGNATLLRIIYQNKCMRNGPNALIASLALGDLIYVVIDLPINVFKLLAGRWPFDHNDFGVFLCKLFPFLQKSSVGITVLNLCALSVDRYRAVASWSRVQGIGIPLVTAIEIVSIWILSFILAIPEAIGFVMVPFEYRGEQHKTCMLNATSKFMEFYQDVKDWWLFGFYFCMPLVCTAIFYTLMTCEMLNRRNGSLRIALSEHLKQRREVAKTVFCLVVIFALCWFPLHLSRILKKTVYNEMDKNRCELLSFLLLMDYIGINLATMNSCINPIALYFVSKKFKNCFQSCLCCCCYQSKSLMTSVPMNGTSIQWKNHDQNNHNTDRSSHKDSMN

[6] = biological target: T5, Muscarinic acetylcholine receptor M2 (Homo sapiens, UniProt P08172); format: functional, cell-based
T5 sequence (P08172 whole entry): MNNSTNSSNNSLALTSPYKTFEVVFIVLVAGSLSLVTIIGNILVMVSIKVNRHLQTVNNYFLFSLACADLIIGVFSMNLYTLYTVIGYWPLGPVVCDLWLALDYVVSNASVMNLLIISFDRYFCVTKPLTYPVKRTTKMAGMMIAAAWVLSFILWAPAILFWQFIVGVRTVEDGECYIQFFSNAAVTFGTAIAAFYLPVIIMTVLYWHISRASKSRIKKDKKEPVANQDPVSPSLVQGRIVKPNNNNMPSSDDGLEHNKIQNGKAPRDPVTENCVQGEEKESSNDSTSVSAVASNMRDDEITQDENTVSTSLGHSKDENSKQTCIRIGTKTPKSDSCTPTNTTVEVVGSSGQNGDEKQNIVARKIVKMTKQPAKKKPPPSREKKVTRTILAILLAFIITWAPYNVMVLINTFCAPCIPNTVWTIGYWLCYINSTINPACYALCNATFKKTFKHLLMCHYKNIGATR

Cannabinoid receptor 1 [7] = biological target: T3, Cannabinoid receptor 1; format: functional, cell-based; remark: listed apart in the source
[8] = biological target: Sodium-dependent dopamine transporter (Homo sapiens, UniProt Q01959)
[9] = biological target: T6, Alpha-1A adrenergic receptor (Homo sapiens, UniProt P35348)
T6 sequence (P35348 whole entry): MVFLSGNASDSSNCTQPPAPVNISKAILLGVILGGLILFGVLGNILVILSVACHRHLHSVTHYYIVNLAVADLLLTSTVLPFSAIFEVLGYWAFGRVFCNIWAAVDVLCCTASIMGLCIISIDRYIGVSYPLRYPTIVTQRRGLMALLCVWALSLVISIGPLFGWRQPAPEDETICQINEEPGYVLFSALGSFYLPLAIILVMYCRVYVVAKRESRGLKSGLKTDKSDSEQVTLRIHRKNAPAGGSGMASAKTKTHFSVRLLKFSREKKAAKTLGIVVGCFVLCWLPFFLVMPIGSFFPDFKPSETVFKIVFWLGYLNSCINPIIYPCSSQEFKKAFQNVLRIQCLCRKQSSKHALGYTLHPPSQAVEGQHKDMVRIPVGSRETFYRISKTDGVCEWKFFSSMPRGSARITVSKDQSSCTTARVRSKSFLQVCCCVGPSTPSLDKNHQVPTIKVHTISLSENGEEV

Melanocortin receptor 4 = Melanocortin receptor 4 (Homo sapiens, UniProt P32245)
Cannabinoid receptor 1 [10] = biological target: T3, Cannabinoid receptor 1
[11] = biological target: Beta-2 adrenergic receptor (Homo sapiens, UniProt P07550); format: functional, cell-based
Further: assay procedure not described here.

Chain of Melanocortin receptor 3 (P41968 whole entry): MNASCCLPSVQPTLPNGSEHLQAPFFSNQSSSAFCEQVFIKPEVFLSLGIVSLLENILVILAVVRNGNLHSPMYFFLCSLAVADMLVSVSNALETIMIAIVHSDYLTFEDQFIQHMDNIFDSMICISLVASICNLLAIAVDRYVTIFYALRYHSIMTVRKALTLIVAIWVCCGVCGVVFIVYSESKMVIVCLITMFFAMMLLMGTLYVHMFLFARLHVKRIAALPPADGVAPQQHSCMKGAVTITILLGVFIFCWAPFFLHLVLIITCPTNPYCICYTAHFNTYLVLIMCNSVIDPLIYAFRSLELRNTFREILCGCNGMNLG
Chain of 5-hydroxytryptamine receptor 2A (P28223 whole entry): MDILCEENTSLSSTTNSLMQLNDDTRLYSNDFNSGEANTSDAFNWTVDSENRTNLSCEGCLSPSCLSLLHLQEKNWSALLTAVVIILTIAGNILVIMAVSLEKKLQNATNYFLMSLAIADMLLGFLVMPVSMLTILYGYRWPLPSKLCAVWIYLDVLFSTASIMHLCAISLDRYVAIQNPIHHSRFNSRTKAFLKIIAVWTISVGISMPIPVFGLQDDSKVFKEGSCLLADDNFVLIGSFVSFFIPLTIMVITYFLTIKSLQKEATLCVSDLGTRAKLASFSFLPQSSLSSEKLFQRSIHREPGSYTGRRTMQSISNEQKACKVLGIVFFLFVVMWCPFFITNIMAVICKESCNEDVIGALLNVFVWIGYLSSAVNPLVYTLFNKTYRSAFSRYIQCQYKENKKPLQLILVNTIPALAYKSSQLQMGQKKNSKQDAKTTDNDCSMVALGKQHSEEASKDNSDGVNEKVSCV
T3 sequence (P21554 whole entry): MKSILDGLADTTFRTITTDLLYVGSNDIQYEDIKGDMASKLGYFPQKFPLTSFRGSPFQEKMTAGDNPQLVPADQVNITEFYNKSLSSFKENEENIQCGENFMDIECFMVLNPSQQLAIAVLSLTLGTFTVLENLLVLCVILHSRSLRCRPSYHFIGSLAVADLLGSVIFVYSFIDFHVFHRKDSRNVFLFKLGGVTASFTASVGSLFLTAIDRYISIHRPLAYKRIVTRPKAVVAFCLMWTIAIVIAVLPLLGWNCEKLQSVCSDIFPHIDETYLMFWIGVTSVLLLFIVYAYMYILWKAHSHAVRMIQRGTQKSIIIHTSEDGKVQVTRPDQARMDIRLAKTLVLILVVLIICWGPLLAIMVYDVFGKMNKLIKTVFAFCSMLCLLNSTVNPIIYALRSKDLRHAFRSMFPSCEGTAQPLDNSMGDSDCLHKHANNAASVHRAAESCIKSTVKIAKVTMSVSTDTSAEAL
Chain of Histamine H1 receptor (P35367 whole entry): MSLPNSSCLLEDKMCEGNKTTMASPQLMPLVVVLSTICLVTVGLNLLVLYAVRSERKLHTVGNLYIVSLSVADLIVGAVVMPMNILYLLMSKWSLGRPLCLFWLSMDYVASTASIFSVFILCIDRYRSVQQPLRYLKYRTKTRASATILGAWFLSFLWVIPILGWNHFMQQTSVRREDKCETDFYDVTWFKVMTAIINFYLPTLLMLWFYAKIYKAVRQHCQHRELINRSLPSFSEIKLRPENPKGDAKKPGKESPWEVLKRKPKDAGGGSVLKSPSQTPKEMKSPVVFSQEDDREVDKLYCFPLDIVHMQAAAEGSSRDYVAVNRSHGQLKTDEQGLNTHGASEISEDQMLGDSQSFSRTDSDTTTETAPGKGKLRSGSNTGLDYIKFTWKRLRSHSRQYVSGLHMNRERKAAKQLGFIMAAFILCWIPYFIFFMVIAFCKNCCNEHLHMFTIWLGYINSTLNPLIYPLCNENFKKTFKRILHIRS
Chain of Melanocortin receptor 4 (P32245 whole entry): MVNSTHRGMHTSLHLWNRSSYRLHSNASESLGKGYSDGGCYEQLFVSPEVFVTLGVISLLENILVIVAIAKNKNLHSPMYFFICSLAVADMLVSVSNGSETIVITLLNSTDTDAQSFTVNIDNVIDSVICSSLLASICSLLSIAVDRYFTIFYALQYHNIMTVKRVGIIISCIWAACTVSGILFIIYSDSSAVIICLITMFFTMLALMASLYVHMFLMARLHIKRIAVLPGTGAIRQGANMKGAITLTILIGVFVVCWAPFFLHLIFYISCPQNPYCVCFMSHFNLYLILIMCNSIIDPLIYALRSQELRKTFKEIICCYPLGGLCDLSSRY
Chain of Growth hormone secretagogue receptor type 1 (Q92847 whole entry): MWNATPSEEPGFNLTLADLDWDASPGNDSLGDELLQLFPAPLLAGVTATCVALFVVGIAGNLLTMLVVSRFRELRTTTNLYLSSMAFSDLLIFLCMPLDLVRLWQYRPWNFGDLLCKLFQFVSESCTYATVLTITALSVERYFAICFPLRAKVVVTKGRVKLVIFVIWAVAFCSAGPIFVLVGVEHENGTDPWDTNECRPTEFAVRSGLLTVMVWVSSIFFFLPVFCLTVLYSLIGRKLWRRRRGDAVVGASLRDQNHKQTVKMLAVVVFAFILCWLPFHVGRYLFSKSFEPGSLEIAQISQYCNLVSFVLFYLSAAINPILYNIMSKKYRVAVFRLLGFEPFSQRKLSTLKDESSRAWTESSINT
Chain of Beta-2 adrenergic receptor (P07550 whole entry): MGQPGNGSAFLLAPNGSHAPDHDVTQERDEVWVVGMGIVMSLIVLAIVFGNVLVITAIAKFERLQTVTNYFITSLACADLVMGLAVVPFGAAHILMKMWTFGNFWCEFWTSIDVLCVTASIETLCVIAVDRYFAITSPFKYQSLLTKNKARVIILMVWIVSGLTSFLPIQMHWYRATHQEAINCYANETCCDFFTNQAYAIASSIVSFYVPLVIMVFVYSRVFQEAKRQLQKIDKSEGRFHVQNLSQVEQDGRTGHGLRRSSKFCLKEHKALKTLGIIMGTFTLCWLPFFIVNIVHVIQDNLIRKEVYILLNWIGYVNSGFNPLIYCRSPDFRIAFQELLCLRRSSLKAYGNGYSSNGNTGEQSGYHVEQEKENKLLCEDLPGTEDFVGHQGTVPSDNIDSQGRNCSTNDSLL
Chain of Sodium-dependent dopamine transporter (Q01959 whole entry): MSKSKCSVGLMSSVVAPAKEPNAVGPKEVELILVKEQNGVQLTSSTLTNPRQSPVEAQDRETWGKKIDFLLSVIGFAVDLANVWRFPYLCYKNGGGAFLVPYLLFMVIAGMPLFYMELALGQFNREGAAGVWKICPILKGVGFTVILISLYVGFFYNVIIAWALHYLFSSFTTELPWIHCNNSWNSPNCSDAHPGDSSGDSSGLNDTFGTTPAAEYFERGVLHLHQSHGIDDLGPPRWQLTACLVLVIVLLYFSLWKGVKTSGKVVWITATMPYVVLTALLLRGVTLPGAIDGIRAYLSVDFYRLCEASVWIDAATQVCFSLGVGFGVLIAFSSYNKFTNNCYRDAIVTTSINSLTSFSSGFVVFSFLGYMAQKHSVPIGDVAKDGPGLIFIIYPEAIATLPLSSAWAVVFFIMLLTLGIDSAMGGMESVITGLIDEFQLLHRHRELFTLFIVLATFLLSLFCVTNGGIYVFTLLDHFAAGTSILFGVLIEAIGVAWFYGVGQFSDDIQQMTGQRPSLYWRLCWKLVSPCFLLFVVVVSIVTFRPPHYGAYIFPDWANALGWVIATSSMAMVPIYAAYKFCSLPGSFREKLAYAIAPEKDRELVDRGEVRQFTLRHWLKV

Compound	AC50 [1]	AC50 (Histamine H1 receptor)	AC50 [2]	AC50 [3]	AC50 [4]	AC50 (Melanocortin receptor 3)	AC50 (Cannabinoid receptor 1 [5])	AC50 (Endothelin-1 receptor)	AC50 [6]	AC50 (Cannabinoid receptor 1 [7])	AC50 [8]	AC50 [9]	AC50 (Melanocortin receptor 4)	AC50 (Cannabinoid receptor 1 [10])	AC50 [11]
C#CCOc1ccc(N)cc1C(=O)NCCCC [PARSALMIDE]	> 30 µM	> 30 µM	> 30 µM	> 30 µM	30 µM	> 30 µM	> 30 µM	> 30 µM	> 30 µM	> 30 µM	> 30 µM				
CC1=C(C)C(=O)C(C(CCCCCC(=O)O)c2ccccc2)=C(C)C1=O (configuration not stated) [SERATRODAST]	> 30 µM	> 30 µM		> 30 µM	> 30 µM	> 30 µM			> 30 µM		> 30 µM	> 30 µM	> 30 µM	> 30 µM	
C=C1/C(=C\C=C2/CCC[C@]3(C)[C@@H]([C@H](C)/C=C/[C@@H](O)C4CC4)CC[C@@H]23)C[C@@H](O)C[C@@H]1O [CALCIPOTRIENE]	> 30 µM	> 30 µM		> 30 µM	> 30 µM	> 30 µM		> 30 µM	> 30 µM		> 30 µM	29 µM		> 30 µM	
COc1cc2c(cc1OC)C(CCc1ccc(Cl)cc1)N(C)CC2 (configuration not stated) [METHOPHOLINE]	> 30 µM	> 10 µM	> 10 µM	11 µM	> 10 µM	> 30 µM			> 10 µM		28.7 µM	> 10 µM	> 30 µM	> 10 µM	
CCN(CC)C(=O)Nc1ccc(OCC(O)CNC(C)(C)C)c(C(C)=O)c1 (configuration not stated) [CELIPROLOL]	> 30 µM	> 30 µM	> 30 µM	> 30 µM	> 30 µM	> 30 µM	> 30 µM	> 30 µM	> 30 µM	> 30 µM	> 30 µM				> 30 µM
Oc1ccc2c(c1)[C@@]13CCCC[C@@]1(O)[C@@H](C2)N(CC1CCC1)CC3 [BUTORPHANOL]	> 30 µM	> 30 µM	> 30 µM	> 30 µM	> 30 µM	> 30 µM	> 30 µM	> 30 µM	> 30 µM	> 30 µM	> 30 µM				> 30 µM
O=C(O)c1ccccc1Nc1cc(Cl)ccc1C(=O)O [LOBENZARIT]	> 30 µM	> 30 µM			> 30 µM	> 30 µM	> 30 µM	> 30 µM	> 30 µM	> 30 µM	> 30 µM				> 30 µM
C=C[C@@]1(C)CC(=O)[C@]2(O)[C@@]3(C)[C@@H](O)CCC(C)(C)[C@@H]3[C@H](O)[C@H](OC(C)=O)[C@@]2(C)O1 [COLFORSIN]	> 30 µM	> 30 µM	1.2 µM	> 30 µM	18 µM	> 30 µM	> 30 µM	> 30 µM	1.9 µM	> 30 µM	> 30 µM				
CCCCCCCCCCCCCCCCCCCCCC(=O)Nc1ccn([C@@H]2O[C@H](CO)[C@@H](O)[C@@H]2O)c(=O)n1 [ENOCITABINE]	> 30 µM	> 30 µM		> 30 µM	> 30 µM	> 30 µM	> 30 µM	> 30 µM	> 30 µM	> 30 µM	> 30 µM				
COc1ccc(-c2noc(CC(=O)O)c2-c2ccc(OC)cc2)cc1 [MOFEZOLAC]	> 30 µM	> 30 µM			> 30 µM	> 30 µM	> 30 µM	> 30 µM	> 30 µM	> 30 µM	> 30 µM				> 30 µM
C[N@+]1(CCF)[C@@H]2CC[C@H]1C[C@@H](OC(=O)C(O)(c1ccccc1)c1ccccc1)C2	> 30 µM	15 µM		> 30 µM	> 30 µM	> 30 µM	> 30 µM	> 30 µM	> 30 µM	> 30 µM	> 30 µM				
CC(=O)[C@@]1(O)CC[C@H]2[C@@H]3C=C(Cl)C4=CC(=O)[C@@H]5C[C@@H]5[C@]4(C)[C@H]3CC[C@@]21C [CYPROTERONE]	> 10 µM	> 10 µM	> 10 µM	> 10 µM	> 10 µM	> 10 µM			> 10 µM		> 10 µM	> 10 µM	> 10 µM	> 10 µM	
CC(=O)O[C@H](CC(=O)[O-])C[N+](C)(C)C [ACETYLCARNITINE]	> 30 µM	5.2 µM			> 30 µM	> 30 µM	> 30 µM	> 30 µM	> 30 µM	> 30 µM	> 30 µM				> 30 µM
CCOC(=O)O[C@]1(C(=O)OCCl)CC[C@H]2[C@@H]3CCC4=CC(=O)C=C[C@]4(C)[C@H]3[C@@H](O)C[C@@]21C [LOTEPREDNOL ETABONATE]	> 30 µM	> 30 µM		> 30 µM	> 30 µM	> 30 µM		> 30 µM	> 30 µM		> 30 µM			> 30 µM	
COc1ccc2nc3cc(Cl)ccc3c(Nc3cc(CN4CCCC4)c(O)c(CN4CCCC4)c3)c2n1 [PYRONARIDINE]	26 µM	21 µM		> 30 µM	> 30 µM	> 30 µM	> 30 µM	> 30 µM	> 30 µM	> 30 µM	11 µM				
